# Laboratory results from PubChem BioAssay (NCI).
# Several values for one entry are separate records, joined by “and”; a condition that tells them apart may be missing. Equal entries are not always repeated.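 Step 1: Grow cells in 96-well plates. Step 2: Expose to compound for 48 hours at 5 concentrations. Step 3: Interpolate endpoints linearly; if unreached, use highest concentration. Abbreviation: GI50, concentration required for 50% inhibition of growth. TGI: concentration producing complete growth inhibition.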
# Experiments:
# Assay in all cases: growth of human tumour cells (NCI), 48 h
# DU-145 prostate = test system: DU-145 prostate
# LOX IMVI melanoma = test system: LOX IMVI melanoma
# SN12C renal = test system: SN12C renal
# HCT-15 colon = test system: HCT-15 colon
# 786-0 renal = test system: 786-0 renal
# A549 NSCLC = test system: A549 NSCLC
# SR leukemia = test system: SR leukemia
# NCI-H460 lung = test system: NCI-H460 lung
# K-562 leukemia = test system: K-562 leukemia
# CAKI-1 renal = test system: CAKI-1 renal
SMILES,GI50 (DU-145 prostate) [µM],TGI (DU-145 prostate) [µM],GI50 (LOX IMVI melanoma) [µM],TGI (LOX IMVI melanoma) [µM],GI50 (SN12C renal) [µM],TGI (SN12C renal) [µM],GI50 (HCT-15 colon),TGI (HCT-15 colon) [µM],GI50 (786-0 renal),TGI (786-0 renal),GI50 (A549 NSCLC) [µM],TGI (A549 NSCLC) [µM],GI50 (SR leukemia),TGI (SR leukemia) [µM],GI50 (NCI-H460 lung) [µM],TGI (NCI-H460 lung) [µM],GI50 (K-562 leukemia) [µM],TGI (K-562 leukemia) [µM],GI50 (CAKI-1 renal) [µM],TGI (CAKI-1 renal) [µM]
CCc1cccc(C)c1NC(=O)c1sc2nc3c(cc2c1N)CCCCC3,3.28,> 100,5.3,91.5,6,> 100,3.17 µM,> 100,4.58 µM,> 100 µM,4.14,> 100,2.27 µM,54,3.52,26.6,,,,
COc1cc(-c2cc3ncccc3c3nc(N)c4cccnc4c23)cc(OC)c1OC,0.487,3.13,0.482,15.7,1.01,> 100,0.44 µM,61.9,0.511 µM,10.8 µM,0.434,12.9,0.124 µM,4.97,0.408,16.8,0.169,14.5,0.4,22.6
C=C1C(=O)O[C@H]2C[C@@H]1CC/C(C)=C/CC/C(C)=C/CC[C@H]2C,18,33.5,5.56,12.3,20.6,39,15.7 µM,32.9,14.3 µM,28.2 µM,9.73,33,7.14 µM,15.2,23.2,> 59,14,> 57.1,17,33.6
O=C(CO[N+](=O)[O-])Nc1ccc(C(=O)/C=C/c2ccc(Cl)cc2)cc1,3.41,13.5,1.59,3.51,3.14,14.1,2.03 µM,6.53,11.6 µM,48 µM,5.71,20.6,3.65 µM,> 100,12.7,54.9,2.6,> 100,11.8,54.5
CCN(Cc1cccc(F)c1)c1ccc(CO)c(Cl)c1,26.9,> 100,14.1,28.8,14.6,> 50.5,14.5 µM,> 100,10.5 µM,30.3 µM,2.31,35,27.3 µM,> 70.3,0.306,18,3.54,> 100,0.907,> 36.3
FC(F)(F)c1nc2nc(Cl)c(Cl)nc2n1CCCN1CCOCC1,,63.2,,> 100,,> 100,,> 100,,> 100 µM,,> 100,,33.9,,> 100,,39.6,,14.7
COc1ccc(S(=O)(=O)N2CC(C)(C)CN(S(=O)(=O)c3ccc(OC)cc3)C2C(=O)NO)cc1,> 20,> 20,> 11.1,> 20,> 20,> 20,> 20 µM,> 20,> 20 µM,> 20 µM,> 20,> 20,13.6 µM,> 20,> 20,> 20,> 20,> 20,> 14.1,> 20
CN[C@H]1C=C[C@@H]2/C=C(C)/C=C/[C@@H](C)[C@H]([C@H](C)[C@H](O)[C@@H](C)NC(C)=O)OC(=O)/C=C/C=C(C)\C=C\[C@]2(C)C1,,> 49,0.0049,0.00504,0.00633,> 49,0.0906 µM and 0.0814 µM,> 49,0.00836 µM,> 49 µM,0.0049,> 49,< 0.001 µM and 0.0049 µM,> 49,0.0107,> 49,0.0202,> 49,,
O=C(CC(c1ccccc1)c1c(O)c2ccccc2oc1=O)c1ccccc1 (centres undefined),,> 100,,> 100,,> 100,,> 100,,> 100 µM,,> 100,,> 100,,> 100,,> 100,,46.4
CN(C)CCCOc1ccc(-c2ccc3ncc4c(c3c2)n(C2CCOCC2)c(=O)n4C)cn1,2.37,17.2,1.13,6.51,2.12,20.9,3.08 µM,18,1.74 µM,12.1 µM,2.36,12.3,3.01 µM,15.6,0.94,15.5,9.07,43.4,,
COC(=O)[C@@H](C)C[C@H](Cc1ccccc1)NC(=O)c1csc(CC[C@H](C(C)C)N(C)C(=O)[C@@H](NC(=O)[C@H]2CCCCN2C)C(C)C)n1,0.303,> 19.7,0.373,> 33.3,0.435,> 33.3,0.604 µM,> 33.3,0.382 µM,> 30.2 µM,1.27,> 33.3,0.0686 µM,> 33.3,0.381,> 14.5,0.131,> 33.3,,
Nc1ccccc1C(=O)CC1OC(=O)c2ccccc21 (centres undefined),,> 100,,> 100,,> 100,,> 100,,> 100 µM,,> 100,,> 100,,> 100,,> 100,,
CC[N+](CC)=c1sc2c(s1)C(c1ccc(Cl)cc1)Oc1ccc(Cl)cc1-2 (centres undefined),3.32,10.6,1.51,3.22,1.33,3.33,7.13 µM,21.5,1.92 µM,3.76 µM,1.86,6.9,2.68 µM,7.15,0.503,1.89,0.917,10.3,,
S=C(Nc1ccc(Br)cc1)Nc1ccc(Br)cc1,6.41,> 100,5.29,> 100,9.72,> 100,3.35 µM,> 100,38.5 µM,> 100 µM,5.8,> 100,6.96 µM,> 100,3.69,> 100,3.62,> 100,4,> 100
CCCC(=O)NC1=C(Cl)C(=O)c2ccccc2C1=O,,20.9,,6.27,,31,,12.2,,8.92 µM,,16.9,,6.31,,20,,7.43,,10.1
C=C(C)C(=O)O[C@H]1C[C@@]23O[C@@H]2CCC(=C[C@H]2OC(=O)C(=C)[C@H]12)COC3O (some centres undefined),,> 100,,30.5,,> 100,,43.5,,> 100 µM,,> 100,,95.1,,> 100,,44,,> 100
C=C1C(=O)O[C@@H]2C[C@@H](C)[C@@H]3C=CC(=O)[C@@]3(C)[C@@H](OC(=O)CC(=O)O[C@H]3[C@@H]4C(=C)C(=O)O[C@@H]4C[C@@H](C)[C@@H]4C=CC(=O)[C@]43C)[C@H]12,,12.9,,0.069,,0.0763,,0.0773,,0.0355 µM,,2.46,,0.0548,,0.361,,< 0.0322,,0.111
[Cl][Hg][Cl],20.1,34.8,1.72,16,16.1,29.6,15.8 µM,30.1,12.6 µM,25.1 µM,20.2,39.3,1.72 µM,,15.7,35.5,0.302,4.33,13.7,18.1
O=C(CP(=O)(O)O)NC(CC(=O)OCc1ccccc1)C(=O)OCc1ccccc1 (centres undefined),,> 100,,,,> 100,,> 100,,> 100 µM,,> 100,,> 100,,> 100,,> 100,,> 100
COC(=O)CCc1c[nH]c2ccc(N(CCCl)CCCl)cc12,2.27,> 100,1.39,> 36.2,0.688,36.4,3.16 µM,> 59.3,0.856 µM,> 20.7 µM,1.51,> 100,0.416 µM,> 100,0.322,12.9,9.68,> 100,0.375,> 28.4
Cc1nn(-c2nc3ccccc3[nH]2)c(N)c1-c1ccc(Cl)cc1,6.86,> 100,5.02,> 100,5.52,> 100,3.88 µM,> 100,8.31 µM,> 100 µM,2.9,> 100,3.63 µM,> 100,2.96,> 100,3.55,> 100,8.82,> 100
CC(=O)OCC1OC(n2c(-c3ccc(Cl)cc3)ccc(C#N)c2=S)C(OC(C)=O)C(OC(C)=O)C1OC(C)=O (centres undefined),,> 100,,> 100,,> 100,,> 100,11.1 µM and 26.2 µM,55.8 µM and 72.9 µM,,> 100,> 100 µM and 40.2 µM,> 100,,> 100,,> 100,> 100,> 100
Nc1ccc(C2=NN(c3ccccc3)C(c3ccc(Cl)cc3)C2)cc1 (centres undefined),3.54,11.3,1.66,3.05,1.85,4.53,2.62 µM,7.9,2.03 µM,4.22 µM,2.45,7.98,1.71 µM,4.27,3.94,16.3,,,3.21,14
OCc1ccc(-c2ccc(-c3ccc(CO)o3)[se]2)o1,> 94,> 100,> 91.9,> 100,> 100,> 100,> 100 µM,> 100,> 100 µM,> 100 µM,> 59.8,> 100,> 69.2 µM,> 100,> 72.7,> 100,38.1,> 100,> 100,> 100
CCOc1ccc2nc(SCc3nc4n(n3)S(=O)(=O)c3ccccc3N4C)sc2c1,> 100,> 100,> 100,> 100,> 100,> 100,> 100 µM,> 100,> 100 µM,> 100 µM,> 100,> 100,51.5 µM,> 100,> 100,> 100,71.2,> 100,> 100,> 100
C=C1C(=O)O[C@H]2[C@H]1CC/C(COC(=O)CSCCSCC(=O)OC/C1=C/CC[C@@]3(C)O[C@H]3[C@H]3OC(=O)C(=C)[C@@H]3CC1)=C\CC[C@@]1(C)O[C@@H]21,1.77,3.37,1.49,2.92,2.19,5.34,1.55 µM,3.01,1.64 µM,3.27 µM,2.72,8.21,,,2.28,6.43,1.17,25.7,1.79,3.31
COc1cccc(-c2nc3sccn3c2-c2ccnc(NCCCNS(=O)(=O)c3cccc(F)c3)c2)c1,3.04,> 100,2.63,14.8,2.94,> 100,2.63 µM,> 100,4.49 µM,> 100 µM,2.99,> 100,2.59 µM,> 100,4.04,> 100,1.77,> 100,,
Cc1cc(S(=O)(=O)Nc2nc3cscc3c(=O)n2Cc2ccccc2)c(S)cc1Cl,41,> 100,23.2,51.6,16.6,54.5,56.8 µM,> 100,24.3 µM,> 100 µM,42.4,> 100,,,28.8,> 100,74.1,> 100,45.4,> 100
